Test results reported in BindingDB's records for doi:10.1021/jm980718d (University of Massachusetts Medical Center, 1999).

What was measured:
[1] = target: Uracil-DNA glycosylase (Human herpesvirus 1) (UniProt P10186); experiment: Inhibitory potency against HSV-1 Uracil-DNA glycosylase
[2] = target: Uracil-DNA glycosylase (Human herpesvirus 1) (UniProt P10186); experiment: Inhibitory potency against HSV-1 UDG (Herpes Simplex virus type-I Uracil DNA glycosylase)

Uracil-DNA glycosylase (Human herpesvirus 1), sequence (P10186 whole entry, looked up): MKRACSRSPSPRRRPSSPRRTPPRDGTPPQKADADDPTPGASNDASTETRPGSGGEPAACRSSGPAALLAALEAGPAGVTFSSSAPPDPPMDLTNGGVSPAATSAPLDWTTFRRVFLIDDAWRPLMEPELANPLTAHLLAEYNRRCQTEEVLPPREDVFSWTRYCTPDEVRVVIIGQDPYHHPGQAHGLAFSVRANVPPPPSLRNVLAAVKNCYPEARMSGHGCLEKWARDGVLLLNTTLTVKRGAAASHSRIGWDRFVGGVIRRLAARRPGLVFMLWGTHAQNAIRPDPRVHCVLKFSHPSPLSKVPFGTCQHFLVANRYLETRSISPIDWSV

## CCCCCCCCc1ccc(Nc2cc(=O)[nH]c(=O)n2CCOC)cc1 [1-(2-Methoxy-ethyl)-6-(4-octyl-phenylamino)-1H-pyrimidine-2,4-dione]
[1]
  IC50: 15 µM

## CCCCCCCCOc1ccc(Nc2cc(=O)[nH]c(=O)[nH]2)cc1 [6-(4-Octyloxy-phenylamino)-1H-pyrimidine-2,4-dione]
[1]
  IC50: 25 µM

## CCCCCCc1ccc(Nc2cc(=O)[nH]c(=O)n2CCO)cc1 [6-(4-Hexyl-phenylamino)-1-(2-hydroxy-ethyl)-1H-pyrimidine-2,4-dione]
[2]
  IC50: 20 µM

## CCc1ccc(Nc2cc(=O)[nH]c(=O)[nH]2)cc1 [6-(4-Ethyl-phenylamino)-1H-pyrimidine-2,4-dione]
[2]
  IC50: 500 µM

## CCCCCCc1ccc(Nc2cc(=O)[nH]c(=O)n2CCOC)cc1 [6-(4-Hexyl-phenylamino)-1-(2-methoxy-ethyl)-1H-pyrimidine-2,4-dione]
[2]
  IC50: > 100 µM

## CCCCCCc1ccc(Nc2cc(=O)[nH]c(=O)[nH]2)cc1 [6-(4-Hexyl-phenylamino)-1H-pyrimidine-2,4-dione]
[2]
  IC50: 30 µM

## CCCCCCc1ccc(Nc2cc(=O)[nH]c(=O)n2CCCOC)cc1 [6-(4-Hexyl-phenylamino)-1-(3-methoxy-propyl)-1H-pyrimidine-2,4-dione]
[2]
  IC50: > 100 µM

## CCCCCCCCc1ccc(Nc2cc(=O)[nH]c(=O)[nH]2)cc1 [6-(4-Octyl-phenylamino)-1H-pyrimidine-2,4-dione]
[1]
  IC50: 8 µM

## CCCCCCOc1ccc(Nc2cc(=O)[nH]c(=O)[nH]2)cc1 [6-(4-Hexyloxy-phenylamino)-1H-pyrimidine-2,4-dione]
[2]
  IC50: 30 µM

## CCCCCCCCCCc1ccc(Nc2cc(=O)[nH]c(=O)[nH]2)cc1 [6-(4-Decyl-phenylamino)-1H-pyrimidine-2,4-dione]
[1]
  IC50: 35 µM

## CCCCCCc1ccc(Nc2cc(=O)[nH]c(=O)n2CCCO)cc1 [6-(4-Hexyl-phenylamino)-1-(3-hydroxy-propyl)-1H-pyrimidine-2,4-dione]
[2]
  IC50: 90 µM

## CCCCCCCCc1ccc(Nc2cc(=O)[nH]c(=O)n2CCO)cc1 [1-(2-Hydroxy-ethyl)-6-(4-octyl-phenylamino)-1H-pyrimidine-2,4-dione]
[1]
  IC50: 10 µM

## CCCCCCCCc1ccc(Oc2cc(=O)[nH]c(=O)[nH]2)cc1 [6-(4-Octyl-phenoxy)-1H-pyrimidine-2,4-dione]
[1]
  IC50: 150 µM
